Entries after “also recorded” stand apart in the source; their conditions may differ. Like-named read-outs stand apart in the source and are kept apart here.
Assays:
mast cells = conditions: cited from earlier work; for IC50: read-out: IC50 (μM) degranulation of mast cells; for ranking of activity in the anti-allergy model: mast cell degranulation
TNFα = conditions: cited from earlier work
[1] = tested on: histamine, TNFα and IL-1B induced by IgE; conditions: mouse and rat model; cited from earlier work
[2] = tested on: antigen-induced bronchoconstriction and airway hyper-reactivity; conditions: oral, before and after sensitisation; ovalbumin; cited from earlier work
[3] = tested on: Recurrent airway obstruction (RAO); test: double-blind placebo controlled clinical trial on recurrent airway obstruction in horses; assay type: in vivo; conditions: horses with RAO
Description: A Double-Blind Placebo Controlled Clinical Trial comparing the Efficacy of the Green Lipped Mussel Lipid Extract and Flavonoid alone and in Combination on Recurrent Airway Obstruction in Horses.
Recurrent airway obstruction (RAO), an equine asthma, is a chronic inflammatory disease of the airways typified by bronchoconstriction, wheezing and increased mucous production and caused by allergy to fungal and other dusts but mediated, in part, by leukotrienes and other lipid mediators. […] Studies included clinical status, exercise recovery, breath condensate, broncho-alveolar lavage, cytology and mucous scorings.
Eight horses aged 9-21 with RAO symptoms and cytology consistent with the accepted definition of RAO were recruited.
The study was a double blind randomized, placebo controlled trial. […]
Subjects were clinically and endoscopically examined and BAL and condensate collected and frozen in liquid nitrogen every two weeks. […] The BAL cytology was scored by neutrophil count. Mucous was scored by location, type, volume and viscosity. […]
The clinical assessments scores were assessed as a mean clinical RAO score. The clinical assessments were evaluated on a scale of 1-10 where 1 was severe disease symptomology and 10 indicated a disease-free condition score and the results are shown in Table 1 and FIG. 3. […]

TPA-induced ear oedema = conditions: cited from earlier work
[4] = in vitro; cited from earlier work
LTB4 production = conditions: 9 g/day; cited from earlier work

Compound: O=c1c(O)c(-c2ccccc2)oc2ccc(O)cc12 [3,6-dihydroxyflavone]
- IC50 (mast cells): 6 µM

Compound: O=c1c(O)c(-c2ccccc2)oc2ccccc12 [3-hydroxyflavone]
- IC50 (mast cells): > 100 µM

Compound: O=c1cc(-c2ccccc2)oc2ccc(O)cc12 [6-hydroxyflavone]
- IC50 (mast cells): 28 µM

Compound: O=c1cc(-c2ccccc2)oc2cc(O)ccc12 [7-hydroxyflavone]
- IC50 (mast cells): 21 µM

Compound: O=c1cc(-c2ccc(O)cc2)oc2cc(O)cc(O)c12 [Apigenin]
- ranking of activity in the anti-allergy model (mast cells): most active
- IC50 (mast cells): 4.5 µM
- oral in vivo anti-TNFα activity (TNFα): potent

Compound: O=c1cc(-c2ccccc2)oc2cc(O)c(O)c(O)c12 [Baicalein]
- IC50 (mast cells): 17 µM
- potency on IgE-induced histamine, TNFα and IL-1B production versus other agents [1]: more potent than many other agents

Compound: O=c1cc(-c2ccccc2)oc2cc(O)cc(O)c12 [Chrysin]
- IC50 (mast cells): > 100 µM

Compound: COc1ccc(-c2cc(=O)c3c(O)cc(O)cc3o2)cc1O [Diosmetin]
- ranking of activity in the anti-allergy model (mast cells): most active

Compound: COc1ccc(-c2cc(=O)c3c(O)cc(O[C@@H]4O[C@H](CO[C@@H]5O[C@@H](C)[C@H](O)[C@@H](O)[C@H]5O)[C@@H](O)[C@H](O)[C@H]4O)cc3o2)cc1O [Diosmin]
- IC50 (mast cells): > 100 µM

Compound: O=c1c(O)c(-c2ccc(O)c(O)c2)oc2cc(O)ccc12 [Fisetin]
- ranking of activity in the anti-allergy model (mast cells): most active
- IC50 (mast cells): 3.3 µM

Compound: O=c1cc(-c2ccccc2)oc2ccccc12 [Flavone]
- IC50 (mast cells): > 100 µM

Compound: O=c1c(O)c(-c2ccccc2)oc2cc(O)cc(O)c12 [Galangin]
- IC50 (mast cells): 40 µM

Compound: O=c1c(O)c(-c2ccc(O)cc2)oc2cc(O)cc(O)c12 [Kaempferol]
- IC50 (mast cells): 7.5 µM

Compound: O=c1cc(-c2ccc(O)c(O)c2)oc2cc(O)cc(O)c12 [Luteolin]
- antigen-induced bronchoconstriction and airway hyper-reactivity [2]: significantly reduced
- ranking of activity in the anti-allergy model (mast cells): most potent
- ranking of activity in the anti-allergy model (mast cells; listed as luteolin): most active
- IC50 (mast cells): 1.8 µM
- oral in vivo anti-TNFα activity (TNFα): potent; also recorded: more potent than apigenin; also recorded: inhibited
- potency on IgE-induced histamine, TNFα and IL-1B production versus other agents [1]: more potent than many other agents
- Mean clinical RAO score ([3]; 4 capsules per day, 28 days, scale 1-10, 1 severe, 10 disease-free): 3.38^ade
- improvement of respiratory function ([3]; versus placebo): significantly (P<0.001) improved
- oral anti-inflammatory activity, TPA ear oedema (TPA-induced ear oedema): effective

Compound: O=c1c(O)c(-c2ccc(O)cc2O)oc2cc(O)cc(O)c12 [Morin]
- IC50 (mast cells): 51 µM

Compound: O=c1c(O)c(-c2cc(O)c(O)c(O)c2)oc2cc(O)cc(O)c12 [Myricetin]
- IC50 (mast cells): 6.7 µM
- antioxidant efficiency versus traditional vitamins [4]: more efficient antioxidants than traditional vitamins

Compound: O=c1c(O)c(-c2ccc(O)c(O)c2)oc2cc(O)cc(O)c12 [Quercetin]
- ranking of activity in the anti-allergy model (mast cells): most active
- IC50 (mast cells): 3 µM
- antioxidant efficiency versus traditional vitamins [4]: more efficient antioxidants than traditional vitamins
- potency on IgE-induced histamine, TNFα and IL-1B production versus other agents [1]: more potent than many other agents
- oral anti-inflammatory activity, TPA ear oedema (TPA-induced ear oedema): effective

Compound: CC/C=C\C/C=C\C/C=C\CCCCCCCC(=O)O [a-LNA, a-linolenic acid]
- LTB4 production and pulmonary function (LTB4 production): inhibit LTB4 production and improve pulmonary function
